From PMC6286348, “Inhibitor binding mode and allosteric regulation of Na^+-glucose symporters” (Nature Communications, 2018)
Substitutions are numbered along the chain they refer to.

Assays:
hSGLT1 wild-type = molecular target: T1, hSGLT1 wild-type (Homo sapiens, UniProt P13866); assay: SGLT current measurement (two electrode voltage clamp) in oocytes, hSGLT1 wild-type; type: cell-based; settings: inhibition of αMDG currents (100 mM NaCl) or capacitive currents, 22 °C
T1 construct: expressed in transfected cells; host or cells: Xenopus laevis oocytes injected with cRNA
T1 sequence (P13866 1-664): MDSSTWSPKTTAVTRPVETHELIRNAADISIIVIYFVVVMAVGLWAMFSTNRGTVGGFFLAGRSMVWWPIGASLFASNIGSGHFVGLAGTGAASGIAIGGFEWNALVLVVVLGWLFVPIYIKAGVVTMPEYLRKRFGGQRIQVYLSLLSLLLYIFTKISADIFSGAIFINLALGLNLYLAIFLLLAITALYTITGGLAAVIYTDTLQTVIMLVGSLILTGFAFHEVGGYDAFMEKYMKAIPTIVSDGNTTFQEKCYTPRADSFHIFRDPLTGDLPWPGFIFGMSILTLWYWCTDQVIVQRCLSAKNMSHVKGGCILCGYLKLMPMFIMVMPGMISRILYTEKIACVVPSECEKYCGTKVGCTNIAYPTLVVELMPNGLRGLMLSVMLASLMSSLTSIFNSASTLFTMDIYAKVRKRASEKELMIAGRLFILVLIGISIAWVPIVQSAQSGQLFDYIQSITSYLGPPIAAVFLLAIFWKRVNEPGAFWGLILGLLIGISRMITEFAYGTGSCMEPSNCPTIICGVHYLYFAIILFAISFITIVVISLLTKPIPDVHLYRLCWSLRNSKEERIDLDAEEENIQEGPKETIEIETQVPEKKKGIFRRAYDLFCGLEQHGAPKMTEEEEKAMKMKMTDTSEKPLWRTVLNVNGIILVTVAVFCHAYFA
Protocol: (§1) Xenopus laevis (Nasco) oocytes (V–VI) were prepared as previously described[20] and injected with 50 nl of cRNA (1 μg/μl). […] Briefly, oocytes were incubated for 30 min in the presence of 50 μM αMDG (5 μM [^14C]αMDG) in a buffer containing (in mM) 100 NaCl, 2 KCl, 1 MgCl2, 1 CaCl2, and 10 N-(2-hydroxyethyl)piperazine-N′-(2-ethanesulfonic acid) (HEPES)/Tris (pH 7.5). After incubation, oocytes were rinsed thoroughly with ice-cold buffer containing (mM) 100 choline Cl^–, 2 KCl, 1 MgCl2, 1 CaCl2, and 10 HEPES/Tris (pH 7.5), individually lysed with 5% sodium dodecyl sulfate, and assayed for radioactivity.
(§2) Injected oocytes were incubated at 18 °C, and after 3–4 days, two electrode voltage clamp experiments were performed as previously described. Briefly, SGLT inward glucose currents were measured as a function of the external Na^+ (0–100 mM NaCl), sugar (0–100 mM αMDG), and inhibitors (0.001–100 μM). Steady-state and hSGLT1 capacitive currents were recorded using voltage steps from a holding voltage, Vh of −60 mV, to voltages in the range of −180 to +50 mV in 20 mV increments. The apparent affinity of αMDG, K0.5, was estimated from plots of the inward current as a function of the external αMDG concentration. […] The Na^+-to-αMDG stoichiometry was determined from the reversal potential measurements using the Gibbs free energy as previously described. […]

hSGLT1 T395A = molecular target: T2, hSGLT1 T395A (Homo sapiens, UniProt P13866, T395A); assay: SGLT current measurement in oocytes, hSGLT1 T395A; type: cell-based; settings: effect on αMDG currents in 30 mM αMDG, 22 °C
T2 construct: expressed in transfected cells; host or cells: Xenopus laevis oocytes injected with cRNA
T2 sequence (P13866 1-664 T395A): T1 sequence (P13866 1-664) with T395A
Protocol: as §1, §2

hSGLT2 wild-type [1] = molecular target: T3, hSGLT2 wild-type (Homo sapiens, UniProt P31639); assay: SGLT current measurement in oocytes, hSGLT2 wild-type (MAP17 co-injected); type: cell-based; parameters: expressed in transfected cells; host or cells: Xenopus laevis oocytes injected with hSGLT2 cRNA and MAP17 cRNA; settings: 22 °C
T3 sequence (P31639 1-672): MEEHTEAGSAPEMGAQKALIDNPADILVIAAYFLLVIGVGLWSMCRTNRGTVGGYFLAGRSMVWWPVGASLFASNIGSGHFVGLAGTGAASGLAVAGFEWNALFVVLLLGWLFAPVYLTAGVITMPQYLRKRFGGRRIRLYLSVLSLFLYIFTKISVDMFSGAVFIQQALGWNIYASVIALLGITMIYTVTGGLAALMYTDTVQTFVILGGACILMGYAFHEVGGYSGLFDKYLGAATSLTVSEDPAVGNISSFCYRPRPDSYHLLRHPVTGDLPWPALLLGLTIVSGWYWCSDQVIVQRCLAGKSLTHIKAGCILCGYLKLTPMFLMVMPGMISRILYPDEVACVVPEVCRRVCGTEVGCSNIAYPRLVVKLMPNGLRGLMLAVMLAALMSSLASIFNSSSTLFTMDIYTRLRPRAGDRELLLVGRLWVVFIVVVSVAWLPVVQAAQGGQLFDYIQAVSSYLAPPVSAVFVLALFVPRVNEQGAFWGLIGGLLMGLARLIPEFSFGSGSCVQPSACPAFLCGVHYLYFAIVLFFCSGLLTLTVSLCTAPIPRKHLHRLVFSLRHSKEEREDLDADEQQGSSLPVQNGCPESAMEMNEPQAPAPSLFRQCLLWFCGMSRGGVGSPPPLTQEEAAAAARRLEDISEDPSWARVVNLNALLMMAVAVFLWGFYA
T3 sequence (Q13113 1-114 partner): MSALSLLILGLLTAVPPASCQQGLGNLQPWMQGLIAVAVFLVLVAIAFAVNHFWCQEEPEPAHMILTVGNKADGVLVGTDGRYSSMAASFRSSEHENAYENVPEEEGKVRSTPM
Protocol: as §1
(§3) Injected oocytes were incubated at 18 °C, and after 3–4 days, two electrode voltage clamp experiments were performed as previously described. Briefly, SGLT inward glucose currents were measured as a function of the external Na^+ (0–100 mM NaCl), sugar (0–100 mM αMDG), and inhibitors (0.001–100 μM). Steady-state and hSGLT1 capacitive currents were recorded using voltage steps from a holding voltage, Vh of −60 mV, to voltages in the range of −180 to +50 mV in 20 mV increments. The apparent affinity of αMDG, K0.5, was estimated from plots of the inward current as a function of the external αMDG concentration. Under our experimental conditions, K0.5 is a close approximation of the αMDG binding constant to the Na^+-bound outward conformation of SGLT. The apparent affinity for Na^+, K0.5, was estimated from plots of the αMDG inward current as a function of external Na^+ concentration. For hSGLT1 the interpretation of K0.5 is more complex owing to the presence of two Na^+ binding sites. In this case, the K0.5 is a lumped coefficient for Na^+ binding to the two sites in the outward-facing hSGLT1 conformation. […] The Na^+-to-αMDG stoichiometry was determined from the reversal potential measurements using the Gibbs free energy as previously described. The stoichiometry determinations were reinforced by estimates of αMDG and Na^+ Hill coefficients, and in some cases, by measurement of ^22Na and [^14C]αMDG uptakes under voltage clamp, [21].

hSGLT2 A395T = molecular target: T4, hSGLT2 A395T (Homo sapiens, UniProt P31639, A395T); assay: cell-based; settings: poor expression; n = 3 oocytes (n = 2 for dapa-aglycon)
T4 construct: expressed in transfected cells; host or cells: Xenopus laevis oocytes injected with hSGLT2 A395T cRNA and MAP17 cRNA
Protocol: as §1, §3

hSGLT2 wild-type [2] = molecular target: T3, hSGLT2 wild-type; settings: cited from earlier work
hSGLT1 D268H = molecular target: T5, hSGLT1 D268H (Homo sapiens, UniProt P13866, D268H); assay: SGLT current measurement in oocytes, hSGLT1 D268H; type: cell-based; settings: D268H vs wild type
T5 construct: expressed in transfected cells; host or cells: Xenopus laevis oocytes injected with cRNA
T5 sequence (P13866 1-664 D268H): T1 sequence (P13866 1-664) with D268H
Protocol: as §1, §2

T4 sequence (P31639 whole entry A395T, one chain of several): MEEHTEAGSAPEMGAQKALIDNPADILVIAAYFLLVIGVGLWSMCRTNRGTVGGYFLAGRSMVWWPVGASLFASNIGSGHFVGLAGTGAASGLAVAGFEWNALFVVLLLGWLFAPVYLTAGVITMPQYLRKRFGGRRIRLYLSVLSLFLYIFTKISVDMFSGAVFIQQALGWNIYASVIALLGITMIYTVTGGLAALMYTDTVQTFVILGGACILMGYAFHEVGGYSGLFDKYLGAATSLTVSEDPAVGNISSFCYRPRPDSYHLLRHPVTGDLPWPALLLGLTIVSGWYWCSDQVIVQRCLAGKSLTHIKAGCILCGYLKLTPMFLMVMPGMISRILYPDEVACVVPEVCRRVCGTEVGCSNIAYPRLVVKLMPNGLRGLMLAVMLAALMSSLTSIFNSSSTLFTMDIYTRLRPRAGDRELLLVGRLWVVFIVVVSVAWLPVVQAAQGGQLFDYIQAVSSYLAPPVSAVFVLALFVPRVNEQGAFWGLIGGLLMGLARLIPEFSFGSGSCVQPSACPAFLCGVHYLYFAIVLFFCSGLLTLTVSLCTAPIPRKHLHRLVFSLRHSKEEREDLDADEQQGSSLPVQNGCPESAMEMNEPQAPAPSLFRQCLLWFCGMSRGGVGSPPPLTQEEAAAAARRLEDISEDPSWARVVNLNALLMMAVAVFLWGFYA

| Compound | Ki (hSGLT1 wild-type) | Ki (hSGLT1 T395A) | Ki (hSGLT2 wild-type [1]) | Ki (hSGLT2 A395T) | higher potency for hSGLT2 (vs hSGLT1) (hSGLT2 wild-type [2]) | decrease of Ki vs wild-type hSGLT1 (hSGLT1 D268H) |
| --- | --- | --- | --- | --- | --- | --- |
| CCOc1ccc(Cc2cc(O)ccc2Cl)cc1 [dapa-aglycon] | 425 ± 50 µM | 187 ± 80 µM | 110 ± 30 µM | > 600 µM | – | – |
| CCOc1ccc(Cc2cc([C@@H]3O[C@H](CO)[C@@H](O)[C@H](O)[C@H]3O)ccc2Cl)cc1 [dapagliflozin] | – | – | – | – | > 100 fold | 13 fold |
| O=C(CCc1ccc(O)cc1)c1c(O)cc(O)cc1O [phloretin] | – | – | 27 ± 3 µM | 129 ± 70 µM | – | – |
